biological target: T1, L-Alanine Dehydrogenase (A.D) (Lysinibacillus sphaericus, UniProt P17556); experiment: Relative activity of substrate with L-alanine dehydrogenase (vs L-alanine); assay type: biochemical; conditions: relative to L-alanine (100%)
T1 sequence (P17556 1-372): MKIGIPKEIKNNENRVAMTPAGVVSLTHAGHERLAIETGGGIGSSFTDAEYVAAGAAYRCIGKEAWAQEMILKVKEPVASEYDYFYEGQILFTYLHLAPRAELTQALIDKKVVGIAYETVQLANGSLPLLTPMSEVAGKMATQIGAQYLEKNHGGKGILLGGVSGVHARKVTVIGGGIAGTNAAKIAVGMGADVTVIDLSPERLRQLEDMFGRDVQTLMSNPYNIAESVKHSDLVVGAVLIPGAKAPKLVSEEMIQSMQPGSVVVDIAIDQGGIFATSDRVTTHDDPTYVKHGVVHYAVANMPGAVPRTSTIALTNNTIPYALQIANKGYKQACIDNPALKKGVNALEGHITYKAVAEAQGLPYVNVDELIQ
Source text: If L-Alanine Dehydrogenase (A.D) is used as the enzyme in a reaction system similar to that used for Leucine Dehydrogenase, a suitable substrate and its activity relative to L-alanine (100%) is […]

Molecule | Relative Activity
C[C@H](N)C(=O)O [L-alanine] | 100%
N[C@@H](CO)C(=O)O [L-serine] | 5%

biological target: T2, 3α-Hydroxysteroid Dehydrogenase (H.DH) (Comamonas testosteroni, UniProt P80702); experiment: Relative activity of substrates with 3α-hydroxysteroid dehydrogenase (vs cholic acid); assay type: biochemical; conditions: relative to Cholic Acid
T2 sequence (P80702 1-257): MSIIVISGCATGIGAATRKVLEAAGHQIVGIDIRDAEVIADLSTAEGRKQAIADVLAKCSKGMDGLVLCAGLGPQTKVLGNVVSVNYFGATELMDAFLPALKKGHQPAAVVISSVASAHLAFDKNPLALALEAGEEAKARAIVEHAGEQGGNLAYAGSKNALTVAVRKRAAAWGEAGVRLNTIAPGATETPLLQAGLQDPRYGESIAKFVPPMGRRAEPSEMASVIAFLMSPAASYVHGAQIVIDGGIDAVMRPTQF
Source text: Their activities relative to Cholic Acid are also listed.

Molecule | Relative Activity
C[C@H](CCC(=O)O)[C@H]1CC[C@H]2[C@@H]3CC[C@@H]4C[C@H](O)CC[C@]4(C)[C@H]3CC[C@]12C [Lithocholic Acid] | 96%
Etiocholic Acid | 60%

tested on: L-Lactate Dehydrogenase (LDH); experiment: Relative activity of substrates with L-lactate dehydrogenase (vs L-lactate); assay type: biochemical, Lactobacillus sp.; conditions: relative to L-Lactate
Source text: Wherein, L-Lactate Dehydrogenase (LDH) from Lactobacillus sp. is used as the enzyme in the following reaction, [drawing 10] suitable substrates and their activity relative to L-Lactate are:

Molecule | Relative Activity
O=C(O)CC(=O)C(=O)O [Oxoloacetate] | 36%

tested on: Glucose Dehydrogenase (GLD); experiment: Relative activity of substrates with glucose dehydrogenase (vs D-glucose); assay type: biochemical; conditions: rate of reaction relative to D-glucose (100%), NAD coenzyme
Source text: If glucose dehydrogenase is used as the enzyme, preferred substrates for reduction of the NAD coenzyme and their relative degree of cross reactivity when compared to D-Glucose are:

Molecule | Relative Activity
OC[C@H]1O[C@@H](O)[C@H](O)[C@@H](O)[C@@H]1O [D-Glucose] | 100%
OC[C@@H](O)[C@@H](O)[C@H](O)[C@@H](O)CO [D-sorbitol] | 0.1%
O[C@H]1[C@H](O)[C@@H](O)[C@H](O)[C@@H](O)[C@H]1O [inositol] | 0.2%
OC[C@H]1OC(O)[C@H](O)[C@@H](O)[C@H]1O (stereo partly drawn) [D-galactose] | 0.1%
O=C(CO)[C@@H](O)[C@H](O)[C@H](O)CO [D-fructose] | 0.8%
O=C(CO)[C@@H](O)[C@H](O)[C@@H](O)CO [L-sorbose] | 0.3%
OC[C@H]1OC(O)[C@@H](O)[C@@H](O)[C@@H]1O (stereo partly drawn) [D-mannose] | 2.4%
xylose | 8.9%
OC[C@H]1O[C@@H](O[C@H]2[C@H](O)[C@@H](O)C(O)O[C@@H]2CO)[C@H](O)[C@@H](O)[C@H]1O (stereo partly drawn) [D-lactose] | 1.2%
OC[C@H]1O[C@H](O[C@H]2[C@H](O)[C@@H](O)[C@H](O)O[C@@H]2CO)[C@H](O)[C@@H](O)[C@@H]1O [maltose] | 3.9%

biological target: T3, Leucine Dehydrogenase (L.D) (Bacillus cereus, UniProt P0A393); experiment: Relative activity of substrates with leucine dehydrogenase (vs L-leucine); assay type: biochemical; conditions: relative to L-leucine (100%)
T3 sequence (P0A393 1-366): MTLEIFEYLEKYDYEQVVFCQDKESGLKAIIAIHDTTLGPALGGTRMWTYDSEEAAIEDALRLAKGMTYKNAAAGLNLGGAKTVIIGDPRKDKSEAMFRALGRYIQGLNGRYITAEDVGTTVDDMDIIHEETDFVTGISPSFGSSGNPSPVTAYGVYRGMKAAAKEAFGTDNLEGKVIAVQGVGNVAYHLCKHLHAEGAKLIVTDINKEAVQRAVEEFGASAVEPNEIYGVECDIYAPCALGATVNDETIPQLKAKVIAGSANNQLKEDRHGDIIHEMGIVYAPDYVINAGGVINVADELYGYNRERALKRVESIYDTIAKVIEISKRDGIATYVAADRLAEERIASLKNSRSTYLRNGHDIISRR
Source text: Wherein Leucine Dehydrogenase (L.D) is used as the enzyme according to the reaction [drawing 9] suitable substrates and their activity relative to L-leucine (100%) are

Molecule | Relative Activity
CSCC[C@H](N)C(=O)O [L-Methionine] | 0.6%
CCC[C@H](N)C(=O)O [L-Norvaline] | 41%
CC[C@H](C)[C@H](N)C(=O)O [L-Isoleucine] | 58%
CCCC[C@H](N)C(=O)O [L-Norleucine] | 10%
CC(C)C[C@H](N)C(=O)O [L-leucine] | 100%
N[C@@H](CS)C(=O)O [L-Cysteine] | 0.3%
CC(C)[C@H](N)C(=O)O [L-Valine] | 74%

biological target: T4, G-6-P-DH (Saccharomyces cerevisiae, UniProt P11412); experiment: Relative reactivity of substrates with G-6-P-DH, NADP as coenzyme (vs G-6-P); assay type: biochemical, Yeast; conditions: relative to G-6-P-DH/G-6-P pair
T4 sequence (P11412 1-505): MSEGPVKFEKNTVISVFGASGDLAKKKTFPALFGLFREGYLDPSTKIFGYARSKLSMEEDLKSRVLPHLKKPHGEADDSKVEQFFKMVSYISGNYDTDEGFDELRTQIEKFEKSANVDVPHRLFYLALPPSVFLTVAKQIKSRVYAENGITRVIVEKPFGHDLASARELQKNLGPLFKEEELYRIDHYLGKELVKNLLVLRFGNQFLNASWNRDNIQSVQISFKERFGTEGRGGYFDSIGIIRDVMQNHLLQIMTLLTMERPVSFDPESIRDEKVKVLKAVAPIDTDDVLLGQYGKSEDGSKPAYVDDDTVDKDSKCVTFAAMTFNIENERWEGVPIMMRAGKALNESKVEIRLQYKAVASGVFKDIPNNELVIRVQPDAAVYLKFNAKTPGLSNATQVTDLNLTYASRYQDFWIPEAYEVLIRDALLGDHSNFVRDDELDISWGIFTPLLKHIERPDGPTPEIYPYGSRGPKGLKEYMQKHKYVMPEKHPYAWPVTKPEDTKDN

Molecule | relative reactivity
O=P(O)(O)OC[C@H]1OC(O)C[C@@H](O)[C@@H]1O (some centres unmarked) [2-deoxyglucose-6-P] | 18%
N[C@H]1C(O)O[C@H](COP(=O)(O)O)[C@@H](O)[C@@H]1O (some centres unmarked) [glucosamine-6-P] | 2%
O=P(O)(O)OC[C@H]1OC(O)[C@H](O)[C@@H](O)[C@H]1O (some centres unmarked) [galactose-6-P] | 25%

biological target: T5, Glycerol Dehydrogenase (GLY.DH) (Geobacillus stearothermophilus, UniProt P32816); experiment: Relative activity of substrates with glycerol dehydrogenase (vs glycerol); assay type: biochemical; conditions: relative to glycerol (100%)
T5 sequence (P32816 1-370): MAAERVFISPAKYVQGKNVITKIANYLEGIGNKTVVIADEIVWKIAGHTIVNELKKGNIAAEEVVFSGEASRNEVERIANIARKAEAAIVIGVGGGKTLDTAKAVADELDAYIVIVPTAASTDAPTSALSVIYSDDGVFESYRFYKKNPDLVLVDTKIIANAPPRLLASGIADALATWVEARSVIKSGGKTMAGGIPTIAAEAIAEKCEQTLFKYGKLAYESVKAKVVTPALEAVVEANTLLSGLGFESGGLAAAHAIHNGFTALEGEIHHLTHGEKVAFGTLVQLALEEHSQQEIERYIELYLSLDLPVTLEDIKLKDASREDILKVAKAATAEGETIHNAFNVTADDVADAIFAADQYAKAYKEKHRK
Source text: Alternatively, using Glycerol Dehydrogenase (GLY.DH) as the enzyme, suitable substrates in the reaction [drawing 8] and their activity relative to glycerol (100%) are

Molecule | Relative Activity
OCC(O)CO [glycerol] | 100%
CC(O)C(C)O (centres unmarked) [2,3-Butanediol] | 52.6%
OCCO [Ethylene glycol] | 7.8%
OCC(O)CCl (stereo not drawn) [Glycerol-α-monochlorohydrin] | 48.5%
